From patent publication US6174858A, “Conjugates useful in the treatment of prostate cancer” (Merck & Co., Inc., priority 1998, dated 2001)
Like-named read-outs stand apart in the source and are kept apart here. Square brackets hold non-standard residues; d marks the D form. dAc‑VIN = 4-desacetylvinblastine; Chg = N[C@H](C(=O)O)C1CCCCC1

Legend:
free PSA (York PSA) = target: T1, free PSA (York PSA) (Homo sapiens, UniProt P07288); assay: Recognition of oligopeptide-vinca drug conjugates by free PSA (time to 50% cleavage, HPLC); assay type: biochemical; conditions: for Time to 50% Substrate Cleavage by York PSA: conjugate to PSA molar ratio 100 to 1, pH 7.4
T1 construct: purchased York ('York PSA')
Description: The reaction was quenched after various reaction times by the addition of trifluoroacetic acid (TFA) to a final 1% (volume/volume). Alternatively the reaction is quenched with 10 mM ZnCl2. The quenched reaction was analyzed by HPLC on a reversed-phase C18 column using an aqueous 0.1%TFA/acetonitrile gradient. The amount of time (in minutes) required for 50% cleavage of the noted oligopeptide-cytotoxic agent conjugates with enzymatically active free PSA were then calculated.

Colo320DM cells = assay: In vitro cytotoxicity, Alamar Blue assay, Colo320DM control cell line (does not express free PSA); assay type: cell-based
Description: (§1) In vitro Assay of Cytotoxicity of Peptidyl Derivatives of Vinca Drugs
(§2) The cytotoxicities of the cleaveable oligopeptide-vinca drug conjugates, prepared as described in Example 3, against a line of cells which is known to be killed by unmodified vinca drug was assessed with an Alamar Blue assay. Specifically, cell cultures of LNCap prostate tumor cells, Colo32ODM cells (designated C320) or T47D cells in 96 well plates was diluted with medium containing various concentrations of a given conjugate (final plate well volume of 200 μl). […] The cells were incubated for 3 days at 37° C., 20 μl of Alamar Blue is added to the assay well. The cells were further incubated and the assay plates were read on a EL-310 ELISA reader at the dual wavelengths of 570 and 600 nm at 4 and 7 hours after addition of Alamar Blue. Relative percentage viability at the various concentration of conjugate tested was then calculated versus control (no conjugate) cultures and an EC50 was determined. Unless otherwise indicated, the acetate salt of the conjugate was tested.

[1] = tested on: LNCaP prostate tumor cells; assay: In vitro cytotoxicity, Alamar Blue assay, LNCaP cell kill; assay type: cell-based
Description: as §1
as §2, with “Specifically,” for “The cytotoxicities of the cleaveable oligopeptide-vinca drug conjugates, prepared as described in Example 3, against a line of cells which is known to be killed by unmodified vinca drug was assessed with an Alamar Blue assay. Specifically,”

[2] = 72 HRS, read-out: Colo320DM EC 50
[3] = 72 HRS, read-out: LNCaP Cell Kill in 72 HRS. {48 HRS} EC 50
[4] = 72 HRS, second part of Table 2, read-out: Colo320DM EC 50
[5] = 72 HRS, second part of Table 2, read-out: LNCaP Cell Kill in 72 HRS. {48 HRS} EC 50

T1 sequence (P07288 25-261): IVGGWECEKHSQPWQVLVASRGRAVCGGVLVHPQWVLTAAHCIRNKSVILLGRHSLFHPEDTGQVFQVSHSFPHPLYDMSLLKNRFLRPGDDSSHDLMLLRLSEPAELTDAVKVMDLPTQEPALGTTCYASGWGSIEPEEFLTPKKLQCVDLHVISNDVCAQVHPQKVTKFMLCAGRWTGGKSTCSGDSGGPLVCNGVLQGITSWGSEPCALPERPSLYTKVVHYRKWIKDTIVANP

Compound | Time to 50% Substrate Cleavage by York PSA (free PSA (York PSA)) [min] | EC50 (Colo320DM cells; [2]) [µM] | EC50 [1, 3] [µM] | other results
4-O-((2-OH)Ac-Abu-SSChgQ-S-P)-dAc-VIN: peptide-vinca drug conjugate, SEQ ID NO 91 (XSSXQSP; N-hydroxyacetyl; desacetylvinblastine conjugate) | 110 | 52.5 | 11.9 | 
4-O-(Ac-3-Pal-SSChgQS-P)-dAc-VIN: peptide-vinca drug conjugate, SEQ ID NO 92 | 80 | 8 | 5.8 | 
4-O-(Ac-4-trans-L-HypSSChgQ-S-P)-dAc-VIN: peptide-vinca drug conjugate, SEQ ID NO 96 (XSSXQSP; N-acetyl; desacetylvinblastine conjugate) |  | 83.9 | 47.9 | Substrate cleavage by York PSA after 1 HOUR (free PSA (York PSA)): 8%; EC50 (Colo320DM cells; in 5% FBS, read-out: Colo320DM EC 50 in 5% FBS): 26 µM; EC50 ([1]; in 5% FBS, read-out: LNCaP Cell Kill EC 50 in 5% FBS): > 16 µM
4-O-(Ac-4-trans-L-HypSSChgQ-SS-4-trans-L-Hyp)-dAc-VIN: peptide-vinca drug conjugate, SEQ ID NO 95 (XSSXQSSX; N-acetyl; desacetylvinblastine conjugate) | 13 | 13.1 | 16.3 | 
4-O-(Ac-4-trans-L-HypSSChgQSS-(d)-Pro)-(dAc)-VIN: peptide-vinca drug conjugate, SEQ ID NO 87 (XSSXQSSP; N-acetyl; D-Pro; desacetylvinblastine conjugate) |  | 8.1 | 4.1 | Substrate cleavage by York PSA after 1 HOUR (free PSA (York PSA)): 34%
4-O-(Ac-4-trans-L-HypSSChgQSS-Sar)-(dAc)-VIN: peptide-vinca drug conjugate, printed under SEQ ID NO 86 and 105 (XSSXQSSG; N-acetyl; desacetylvinblastine conjugate) | 32 | 13 | 4.1 | Time to 50% Substrate Cleavage by York PSA (free PSA (York PSA); listed as Ac-4-trans-L-HypSSChgQSS-(4-O-Sar)-(dAc)-VIN): 15 min; EC50 (Colo320DM cells; [4]): 12 µM; EC50 [1, 5]: 12 µM
4-O-(Ac-4-trans-L-HypSSChgQSV-glycolyl)-VIN: peptide-vinca drug conjugate, SEQ ID NO 88 (XSSXQSV; N-acetyl; glycolyl linker; vinblastine conjugate) | 8 | 8.1 | 4.1 | 
4-O-(Ac-4-trans-L-HypSSChgQSV-lactyl)-dAc-VIN: peptide-vinca drug conjugate, SEQ ID NO 94 | 7 | 8.1 | 3.1 | Remark printed with the cleavage time (stability of conjugate / fate of product) (free PSA (York PSA); PSA digestion): stable
4-O-(Ac-Abu-SSChgQ-SP)-dAc-VIN: peptide-vinca drug conjugate, SEQ ID NO 90 (XSSXQSP; N-acetyl; desacetylvinblastine conjugate) | 80 | 14.5 | 9.7 | EC50 (Colo320DM cells; in 0.5% FBS, read-out: Colo320DM EC 50 in 0.5% FBS): 23.8 µM; EC50 ([1]; in 0.5% FBS, read-out: LNCaP Cell Kill EC 50 in 0.5% FBS): > 5 µM
4-O-(Ac-SChgQ-SSP)-dAc-VIN: peptide-vinca drug conjugate, SEQ ID NO 116 (XXQSSP; N-acetyl; desacetylvinblastine conjugate) | 15 |  |  | EC50 (Colo320DM cells; [4]): 20 µM; EC50 [1, 5]: 15 µM
4-O-(Ac-SSChgQS-Gly)-(dAc)-VIN: peptide-vinca drug conjugate, SEQ ID NO 98 (Ac-SS[Chg]QSG-{dAc‑VIN}; also: C-terminal ester to 4-OH of desacetylvinblastine) | 55 | 16.3 | 16.3 | 
CCC1(O)CC2CN(CCc3c([nH]c4ccccc34)C(C(=O)OC)(c3cc4c(cc3OC)N(C)C3C(O)(C(=O)OC)C(OC(=O)C(N)Cc5ccccc5)C5(CC)C=CCN6CCC43C65)C2)C1 (stereo not drawn) [(4-O-Phe)-(dAc)-VIN] |  |  |  | EC50 (Colo320DM cells; [4]): 2.2 µM; EC50 [1, 5]: 3.8 µM
CC[C@]1(O)C[C@@H]2CN(CCc3c([nH]c4ccccc34)[C@@](C(=O)OC)(c3cc4c(cc3OC)N(C)[C@H]3[C@@](O)(C(=O)OC)[C@H](OC(C)=O)[C@]5(CC)C=CCN6CC[C@]43[C@@H]65)C2)C1 [VINBLASTINE, vinblastine, reference compound] |  |  |  | EC50 (Colo320DM cells; Homo sapiens, COLO 320DM, 72 HRS, read-out: Colo320DM EC 50): 0.5 µM; EC50 ([1]; Homo sapiens, 72 HRS, read-out: LNCaP Cell Kill in 72 HRS. {48 HRS} EC 50): 0.5 µM
